Laboratory results reported in patent US8916702B2 (priority 2012, dated 2014).

System: HCV pseudoparticles (genotype 1a HCV E1 and E2 envelope, H77C isolate)
Assay: microbe, parasite or virus in culture
Format: cell-based
Conditions: Hepatitis C virus, Huh-7, 48 h, HCV pseudoparticle infection of Huh7 cells, luciferase 2 days after infection; average of duplicates

Compound | EC50 [nM]
COC(=O)[C@H](CCNC(=O)C(=O)NC1Cc2ccccc2C1)NC(=O)c1ccc(Nc2nc(NC3(c4ccc(Cl)cc4)CC3)nc(OCC(F)(F)F)n2)cc1 [Compound 1314] | 0.43
COC(=O)[C@H](CCNC(=O)C(=O)N[C@@H](N)C1CC1)NC(=O)c1ccc(Nc2nc(NC3(c4ccc(Cl)cc4)CC3)nc(OCC(F)(F)F)n2)cc1 [Compound 1392] | 0.14
COC(=O)[C@H](CNC(=O)C(=O)NCc1cc(F)cc(F)c1)NC(=O)c1ccc(Nc2nc(NC3(c4ccc(Cl)cc4)CC3)nc(OCC(F)(F)F)n2)cc1 [Compound 1138] | 0.81

Same assay, conditions: Hepatitis C virus, Huh-7, 48 h, HCV pseudoparticles (genotype 1a, H77C) in Huh7 cells; average of duplicate; luciferase 2 days after infection

Compound | EC50 [nM]
CC(C)(CNC(=O)c1ccc(Nc2nc(NC3(c4ccc(Cl)cc4)CC3)nc(OCC(F)(F)F)n2)cc1)NC(=O)C(=O)NC1CCCCC1 [Compound 3436] | 0.081
O=C(NCCC(NC(=O)c1ccc(Nc2nc(NC3(c4ccc(Cl)cc4)CC3)nc(OCC(F)(F)F)n2)cc1)C(=O)O)C(=O)Nc1ccc(CN2CCCCC2)cc1 (stereo not drawn) [Compound 3534] | 7.54

Same assay, conditions: Hepatitis C virus, Huh-7, 48 h, read-out: Activity (EC50 class), HCV pseudoparticle infection of Huh7 cells, luciferase 2 days after infection; EC50 expressed as class A/B

Compound | EC50 [nM]
CN(C)C(=O)C(=O)NCC[C@H](NC(=O)c1ccc(Nc2nc(NC3(c4ccc(Cl)cc4)CC3)nc(OCC(F)(F)F)n2)cc1)C(=O)O [Compound 1015, (S)-2-(4-(4-(1-(4-chlorophenyl)cyclopropylamino)-6-(2,2,2-trifluoroethoxy)-1,3,5-triazin-2-ylamino)benzamido)-4-(2-(dimethylamino)-2-oxoacetamido)butanoic acid] | 0.01 to 10
COC(=O)[C@H](CCNC(=O)C(=O)NC1Cc2ccccc2C1)NC(=O)c1ccc(Nc2nc(NC3(c4ccc(Cl)cc4)CC3)nc(OCC(F)(F)F)n2)cc1 [Compound 1314] | 0.01 to 10
O=C(NCC[C@@H](NC(=O)c1ccc(Nc2nc(NC3(c4ccc(Cl)cc4)CC3)nc(OCC(F)(F)F)n2)cc1)C(=O)O)C(=O)Nc1ccccc1Cl [Compound 1534] | 0.01 to 10
COC(=O)[C@H](CCNC(=O)C(=O)Nc1cccc(OC)c1)NC(=O)c1ccc(Nc2nc(NC3(c4ccc(Cl)cc4)CC3)nc(OCC(F)(F)F)n2)cc1 [Compound 1228] | 0.01 to 10
COC(=O)[C@H](CCCNC(=O)C(N)=O)NC(=O)c1ccc(Nc2nc(NC3(c4ccc(Cl)cc4)CC3)nc(OCC(F)(F)F)n2)cc1 [Compound 1012, (S)-methyl 5-(2-amino-2-oxoacetamido)-2-(4-(4-(1-(4-chlorophenyl)cyclopropylamino)-6-(2,2,2-trifluoroethoxy)-1,3,5-triazin-2-ylamino)benzamido)pentanoate] | 0.01 to 10
COC(=O)[C@H](CCNC(=O)C(=O)N[C@@H](N)C1CC1)NC(=O)c1ccc(Nc2nc(NC3(c4ccc(Cl)cc4)CC3)nc(OCC(F)(F)F)n2)cc1 [Compound 1392] | 0.01 to 10
COc1ncccc1NC(=O)C(=O)NC[C@H](NC(=O)c1ccc(Nc2nc(NC3(c4ccc(Cl)cc4)CC3)nc(OCC(F)(F)F)n2)cc1)C(=O)O [Compound 1347] | 0.01 to 10
COC(=O)[C@H](CCNC(=O)C(=O)NC1CCCC(NC(=O)OC(C)(C)C)C1)NC(=O)c1ccc(Nc2nc(NC3(c4ccc(Cl)cc4)CC3)nc(OCC(F)(F)F)n2)cc1 (stereo partly drawn) [Compound 1097] | 0.01 to 10
O=C(NC[C@H](NC(=O)c1ccc(Nc2nc(NC3(c4ccc(Cl)cc4)CC3)nc(OCC(F)(F)F)n2)cc1)C(=O)O)C(=O)Nc1ccc(C(F)(F)F)cc1 [Compound 1363] | 0.01 to 10
CN(C(=O)C(=O)NCC[C@H](NC(=O)c1ccc(Nc2nc(NC3(c4ccc(Cl)cc4)CC3)nc(OCC(F)(F)F)n2)cc1)C(=O)O)c1ccccc1 [Compound 1277] | 0.01 to 10
COC(=O)[C@H](CCNC(=O)C(=O)Nc1ccc(Cl)cc1)NC(=O)c1ccc(Nc2nc(NC3(c4ccc(Cl)cc4)CC3)nc(OCC(F)(F)F)n2)cc1 [Compound 1515] | 0.01 to 10
COC(=O)[C@H](CNC(=O)C(=O)N[C@H]1C[C@H](C)CC[C@H]1C(C)C)NC(=O)c1ccc(Nc2nc(NC3(c4ccc(Cl)cc4)CC3)nc(OCC(F)(F)F)n2)cc1 [Compound 1067] | 0.01 to 10
O=C(NCC[C@H](NC(=O)c1ccc(Nc2nc(NC3(c4ccc(Cl)cc4)CC3)nc(OCC(F)(F)F)n2)cc1)C(=O)O)C(=O)Nc1ccc(F)cc1F [Compound 1502] | 0.01 to 10
COC(=O)[C@H](CCNC(=O)C(=O)NC1CCC(C(C)(C)C)CC1)NC(=O)c1ccc(Nc2nc(NC3(c4ccc(Cl)cc4)CC3)nc(OCC(F)(F)F)n2)cc1 (stereo partly drawn) [Compound 1108] | 0.01 to 10
CC(C)(CNC(=O)C(=O)Nc1ccc(-c2ccc(F)cc2)cc1)CNC(=O)c1ccc(Nc2nc(NC3(c4ccc(Cl)cc4)CC3)nc(OCC(F)(F)F)n2)cc1 [Compound 1569] | 0.01 to 10
COC(=O)[C@H](CNC(=O)C(=O)NCc1cc(F)cc(F)c1)NC(=O)c1ccc(Nc2nc(NC3(c4ccc(Cl)cc4)CC3)nc(OCC(F)(F)F)n2)cc1 [Compound 1138] | 0.01 to 10
O=C(NCC[C@H](NC(=O)c1ccc(Nc2nc(NC3(c4ccc(Cl)cc4)CC3)nc(OCC(F)(F)F)n2)cc1)C(=O)O)C(=O)Nc1cccc(C(F)(F)F)c1 [Compound 1271] | 0.01 to 10
COC(=O)[C@H](CNC(=O)C(=O)NC1CCCCC1)NC(=O)c1ccc(Nc2nc(NC3(c4ccc(Cl)cc4)CC3)nc(OCC(F)(F)F)n2)cc1 [Compound 1132] | 0.01 to 10
O=C1CC(NC(=O)C(=O)NCC[C@H](NC(=O)c2ccc(Nc3nc(NC4(c5ccc(Cl)cc5)CC4)nc(OCC(F)(F)F)n3)cc2)C(=O)O)CCN1 (stereo partly drawn) [Compound 1116] | 10 to 1000
COC(=O)[C@H](CNC(=O)C(=O)NCCn1cncn1)NC(=O)c1ccc(Nc2nc(NC3(c4ccc(Cl)cc4)CC3)nc(OCC(F)(F)F)n2)cc1 [Compound 1298] | 0.01 to 10
Cc1ccc(C2CC2CNC(=O)C(=O)NCC[C@H](NC(=O)c2ccc(Nc3nc(NC4(c5ccc(Cl)cc5)CC4)nc(OCC(F)(F)F)n3)cc2)C(=O)O)cc1 (stereo partly drawn) [Compound 1444] | 0.01 to 10

Same assay, conditions: Hepatitis C virus, Huh-7, 48 h, read-out: Activity (EC50 class), HCV pseudoparticles, Huh7 cells, luciferase 2 days after infection; average of duplicates

Compound | EC50 [nM]
Cc1ccc(NC(=O)C(=O)NCC(C)(C)CNC(=O)c2ccc(Nc3nc(NC4(c5ccc(Cl)cc5)CC4)nc(OCc4cccc(F)c4)n3)cc2)cc1 [Compound 3846] | 0.01 to 10
O=C(NC[C@H](NC(=O)c1ccc(Nc2nc(NC3(c4ccc(Cl)cc4)CC3)nc(OCC(F)(F)F)n2)cc1)C(=O)Cl)C(=O)Nc1cccc(Cl)c1 [Compound 3741] | 0.01 to 10
O=C(NCC[C@H](NC(=O)c1ccc(Nc2nc(NC3(c4ccc(Cl)cc4)CC3)nc(OCC(F)(F)F)n2)cc1)C(=O)O)C(=O)Nc1cccc(-c2ncc[nH]2)c1 [Compound 3634] | 0.01 to 10
CC(C)(CNC(=O)C(=O)Nc1nc2ccc(F)cc2s1)CNC(=O)c1ccc(Nc2nc(NC3(c4ccc(Cl)cc4)CC3)nc(OCC(F)(F)F)n2)cc1 [Compound 3804] | 0.01 to 10
COC(=O)[C@H](CNC(=O)C(=O)Nc1cccc(OCc2ccccc2)c1)NC(=O)c1ccc(Nc2nc(NC3(c4ccc(Cl)cc4)CC3)nc(OCC(F)(F)F)n2)cc1 [Compound 3686] | 0.01 to 10
Cc1csc(-c2cccc(NC(=O)C(=O)NC[C@H](NC(=O)c3ccc(Nc4nc(NC5(c6ccc(Cl)cc6)CC5)nc(OCC(F)(F)F)n4)cc3)C(=O)Cl)c2)n1 [Compound 3780] | 0.01 to 10
COc1ccc2sc(NC(=O)C(=O)NCC(C)(C)CNC(=O)c3ccc(Nc4nc(NC5(c6ccc(Cl)cc6)CC5)nc(OCC(F)(F)F)n4)cc3)nc2c1 [Compound 3806] | 0.01 to 10
COC(=O)[C@H](CNC(=O)C(=O)Nc1cccc(CCC(N)=O)c1)NC(=O)c1ccc(Nc2nc(NC3(c4ccc(Cl)cc4)CC3)nc(OCC(F)(F)F)n2)cc1 [Compound 3738] | 0.01 to 10

Same assay, conditions: Hepatitis C virus, Huh-7, read-out: Activity (EC50 class), HCV pseudoparticles (genotype 1a, H77C) in Huh7 cells; EC50 expressed as class A/B

Compound | EC50 [nM]
COCc1ccc(NC(=O)C(=O)NCC[C@H](NC(=O)c2ccc(Nc3nc(NC4(c5ccc(Cl)cc5)CC4)nc(OCC(F)(F)F)n3)cc2)C(=O)OC)cc1 [Compound 3322] | 0.01 to 10
COc1cccc(-c2ccccc2NC(=O)C(=O)NCC(C)(C)CNC(=O)c2ccc(Nc3nc(NC4(c5ccc(Cl)cc5)CC4)nc(OCC(F)(F)F)n3)cc2)c1 [Compound 3049] | 0.01 to 10
CC(C)(CNC(=O)c1ccc(Nc2nc(NC3(c4ccc(Cl)cc4)CC3)nc(OCC(F)(F)F)n2)cc1)NC(=O)C(=O)NC1CCCCC1 [Compound 3436] | 0.01 to 10
CCOCCOc1ccc(NC(=O)C(=O)NC[C@H](NC(=O)c2ccc(Nc3nc(NC4(c5ccc(Cl)cc5)CC4)nc(OCC(F)(F)F)n3)cc2)C(=O)OC)cc1 [Compound 3192] | 0.01 to 10
CC(C)CNC(=O)C(=O)NCC(C)CNC(=O)c1ccc(Nc2nc(NC3(c4ccc(Cl)cc4)CC3)nc(OCC(F)(F)F)n2)cc1 (stereo not drawn) [Compound 3476] | 0.01 to 10
CC(C)(CNC(=O)C(=O)Nc1ccc(C#N)cc1F)CNC(=O)c1ccc(Nc2nc(NC3(c4ccc(Cl)cc4)CC3)nc(OCC(F)(F)F)n2)cc1 [Compound 3383] | 0.01 to 10
CC(C)(CNC(=O)C(=O)Nc1ccc2c(c1)CCCC2=O)CNC(=O)c1ccc(Nc2nc(NC3(c4ccc(Cl)cc4)CC3)nc(OCC(F)(F)F)n2)cc1 [Compound 3263] | 0.01 to 10
COC(=O)/C(CCNC(=O)C(=O)Nc1ccc(-n2cccn2)cc1)=N\C(=O)c1ccc(Nc2nc(NC3(c4ccc(Cl)cc4)CC3)nc(OCC(F)(F)F)n2)cc1 [Compound 3136] | 0.01 to 10
CC(C)c1ccc(NC(=O)C(=O)NC[C@H](NC(=O)c2ccc(Nc3nc(NC4(c5ccc(Cl)cc5)CC4)nc(OCC(F)(F)F)n3)cc2)C(=O)O)cc1 [Compound 3295] | 0.01 to 10
CC(C)(CNC(=O)C(=O)Nc1ccc(Cl)cc1C#N)CNC(=O)c1ccc(Nc2nc(NC3(c4ccc(Cl)cc4)CC3)nc(OCC(F)(F)F)n2)cc1 [Compound 3384] | 0.01 to 10
COC(=O)[C@H](CNC(=O)C(=O)Nc1ccc(OCC(F)(F)F)cc1)NC(=O)c1ccc(Nc2nc(NC3(c4ccc(Cl)cc4)CC3)nc(OCC(F)(F)F)n2)cc1 [Compound 3096] | 0.01 to 10
COC(=O)/C(CCNC(=O)C(=O)Nc1cccc(S(=O)(=O)C2CCCCC2)c1)=N\C(=O)c1ccc(Nc2nc(NC3(c4ccc(Cl)cc4)CC3)nc(OCC(F)(F)F)n2)cc1 [Compound 3595] | 0.01 to 10
O=C(NCCC(NC(=O)c1ccc(Nc2nc(NC3(c4ccc(Cl)cc4)CC3)nc(OCC(F)(F)F)n2)cc1)C(=O)O)C(=O)Nc1ccc(CN2CCCCC2)cc1 (stereo not drawn) [Compound 3534] | 0.01 to 10
COC(=O)[C@H](CCNC(=O)C(=O)Nc1ccc(OC(F)F)cc1)NC(=O)c1ccc(Nc2nc(NC3(c4ccc(Cl)cc4)CC3)nc(OCC(F)(F)F)n2)cc1 [Compound 3332] | 0.01 to 10
Cn1cnc(NC(=O)C(=O)NCC(C)(C)CNC(=O)c2ccc(Nc3nc(NC4(c5ccc(Cl)cc5)CC4)nc(OCC(F)(F)F)n3)cc2)c1 [Compound 3178] | 0.01 to 10
CC(C)(CNC(=O)C(=O)Nc1ncco1)CNC(=O)c1ccc(Nc2nc(NC3(c4ccc(Cl)cc4)CC3)nc(OCC(F)(F)F)n2)cc1 [Compound 3027] | 0.01 to 10
CC(C)(CNC(=O)C(=O)Nc1ccc2c(c1)CCC2=O)CNC(=O)c1ccc(Nc2nc(NC3(c4ccc(Cl)cc4)CC3)nc(OCC(F)(F)F)n2)cc1 [Compound 3355] | 0.01 to 10
